Assay [1] has as its system utrophin-A expression. Description: Utrophin upregulation in mdx^5cv myotubes (qRT-PCR for utrophin-A expression). As to conditions: Mus musculus, Myotube, 72 h, 3 days, RT-PCR, read-out: Utrophin upregulation (average of fold change utrophin vs DMSO ± sem). The class given is cell-based. As to the method: Isolation of satellite cell-derived primary myoblasts was performed via cell-surface antibodies and magnetic separation as previously described, and cultured for their expansion (Motohashi et al., J Vis Exp. 2014 Apr. 8; (86): 50846). Briefly, after collagenase (Worthington, CLS-2) treatment, dissociated cells from mdx^5cv mouse hindlimb muscle were incubated with anti-CD31 monoclonal antibody conjugated to phycoerythrin (eBioscience, 12-0311), anti-CD45 monoclonal antibody conjugated to phycoerythrin (eBioscience, 30-F11), anti-Scal monoclonal antibody conjugated to phycoerythrin (eBioscience, Dec-81) and anti-Integrin a7 (MBL International, ABIN487462), followed by anti-PE microbeads (Miltenyi Biotec, 130-048-801), and then performed LD column (Miltenyi Biotec, 130-042-901) separation. Negative cell populations were incubated with anti-Mouse IgG beads (Miltenyi Biotec, 130-048-402), and then MS column (Miltenyi Biotec, 130-042-201) separation was performed to isolate Integrin a7 (+) satellite cells. Satellite cell-derived mdx^5cv myoblasts were maintained in culture on collagen coated plates in myoblast medium containing 20% FBS and 20 ng/ml bFGF (Invitrogen, PHG0263) in HAM's-F10 medium. Cell cultures were maintained in a humidified incubator at 37° C. with 5% CO2 and 5% 02. The mdx^5cv myoblasts were induced to differentiate into multinucleated myotubes after low serum conditions (DMEM supplemented with 5% horse serum).
Halofuginone was obtained from Selleck. Veliflapon and cloricromen HCl were obtained from Sigma. Fabomotizole HCl was obtained from MedChemExpress. Difenpiramide was obtained from Enamine. Amopyroquine and alpelisib were obtained from Carbosynth. Benorilate and xipamide were obtained from Fluorochem. Altizide was obtained from Toronto Research Chemicals. All chemical compounds were dissolved with 100% DMSO to adjust to 10 mM stock solutions.
Every day compounds were added to mdx^5cv myotubes at different concentrations (0.01 to 10 μM) by replacement of the differentiation medium. After 3 days compound exposure, cells were harvested for RNA preparation by TRIzol reagent (15596026, ThermoFisher Scientific). Isolated RNA was used for cDNA synthesis using the Transcriptor First Strand cDNA synthesis kit (04379012001, Roche Molecular Diagnostics) using random primers. Diluted DMSO solution was used as a negative control vehicle. qRT-PCR assay for utrophin-A expression was performed using the following primers: Utro-F1 (Forward) 5′-[…]-3′ (SEQ ID NO: 1) and Utro-R1 (Reverse) 5′-[…]-3′ (SEQ ID NO: 2). 18S rRNA was used as an internal control, with the following primers: 18S-F1 (Forward) 5′-[…]-3′ (SEQ ID NO: 3) and 18S-R1 (Reverse) 5′-[…]-3′ (SEQ ID NO: 4). qPCR was performed using GoTaq qPCR Master Mix (A6001, Promega). All primers were synthesized as custom DNA oligos from Integrated DNA technologies (IDT). Analysis was done using the ACt method. Statistical analysis was performed with at least three independent experiments with between 2 and 4 replicates in each experiment.
The chemical compounds were tested in mdx^5cv myotubes at different concentrations for 3 days. Halofuginone was used as a positive control for the utrophin up-regulation.
For orientation: Real-time PCR tracks product formation cycle by cycle.

Assay [2] deals with DMD patient-derived 3D skeletal muscle tissues. Description: Force of muscle contraction in response to electrical pulse stimulation in human 3D skeletal muscle tissues. It is filed as cell-based. As to conditions: 10 μM; for tetanic index (maximal tetanic specific force / maximal twitch specific force): 2 days (FIG. 3); for maximal twitch contractile force in response to electrical stimulation / tetanic contractile force in response to electrical stimulation: 2 days; for maximal twitch contractile force in response to electrical stimulation: 1 Hz EPS, compared with DMSO treated cells (FIG. 1); for tetanic contractile force in response to electrical stimulation: 50 Hz EPS, compared with DMSO treated cells (FIG. 2). Here is the method: Fabrication of Human 3D Skeletal Muscle Tissues and Treatment Human 3D skeletal muscle tissues were fabricated using polydimethylsiloxane (PDMS; Sylgard 184 silicone elastomer kit, Dow Corning) casting molds developed and fabricated as described in Fernández-Costa et al. 2022. Briefly, the casting molds design consists of a square-shaped pool, where the cells/hydrogel solution is seeded, and two vertical, flexible PDMS pillars. PDMS casting molds were prepared for muscle cell culture by first cleaning them by sonication on water with soap, 2-propanol, and Mili-Q water and sterilized with UV light for 15 min. It was followed by 1 h treatment with 1% Plurionic® F-127 (Sigma-Aldrich) solution in cold PBS (100 μl/well) at 4° C. Human 3D skeletal muscle tissues were generated using Immortalized human muscle satellite cells (iHuMSCs) from a DMD patient (DMD 2, clone G82) (Massenet et al. 2020). iHuMSCs were cultured in growth medium (skeletal muscle basal medium (PromoCell GmbH), skeletal muscle supplemental mix (PromoCell GmbH), 10% Fetal Bovine Serum (FBS) (Gibco™), 100 U/mL penicillin and 100 μg/ml streptomycin (Gibco™)). iHuMSCs were released from culture flasks via mild trypsinization. Cells were encapsulated at 2.5×10^7 cells/ml in a cell/hydrogel mixture of 30% v/v Corning® Matrigel® Growth Factor Reduced (GFR) Basement Membrane Matrix (Corning®), 2 units of thrombin from human plasma (Sigma-Aldrich) and 4 mg/mL of fibrinogen from human plasma (50% v/v) (Sigma-Aldrich). 35 μl was pipetted within each PDMS casting mold using cool tips to avoid premature polymerization.
The cell/hydrogel mixture was polymerized for 30 min at 37° C. followed by incubation in growth medium containing 1 mg/mL of 6-aminocaproic acid (ACA) (Sigma-Aldrich). ACA works as an antifibrinolytic, which avoids fibrin depolymerization. They were kept in growth media for two days and then switched to differentiation medium (Dulbecco's Modified Eagle Medium, high glucose, GlutaMAX™ Supplement (Gibco™), containing 1% KnockOut™ Serum replacement (Gibco™), 1% Insulin-Transferrin-Selenium-Ethanolamine (Gibco™) and 1% Penicillin-Streptomycin-Glutamine (Gibco™)) containing 1 mg/mL of ACA for seven days. Half of the volume of differentiation medium was replaced every two days. After five days of differentiation, the medium was replaced by differentiation medium with the drugs at 10 μM and 0.01% DMSO final concentration. The treatment was kept for 48 hours.
Human 3D skeletal muscle tissues were electrically stimulated after seven days of differentiation to induce muscle contraction. A custom-made device consisted of a 12-well plate with two graphite electrodes per well located on the lid was used to perform the EPS. PDMS casting molds were placed on a 12-well plate with fresh differentiation medium. The plate was placed on a Zeiss Axio Observer Z1/7 outfitted with the XL S1 cell incubator at 37° C. and 5% CO2. The device was connected to a pulse generator (Multifunction Generator WF1974, NF Corporation), and tissues were stimulated with electrical square-wave pulses of 1 V/mm, 1 ms of pulse width, and frequencies varying from 1 to 50 Hz. The contractibility in response of EPS of 1 Hz of frequency was evaluated to study twitch contraction dynamics. On the other hand, 50 Hz of frequency was applied to induce tetanic contractions.
Videos of the movement of the pillar of the casting molds in response to the muscle contractions were taken with a ZEISS Axio Observer Z1/7 microscope. Cross-sectional area and location of the tissues on the axis of the pillars were also recorded during the assay. Videos were analyzed using a custom-made Python script and the specific force performed from the tissues was calculated applying […] together with the calculated displacement of the pillar as done in Mestre et al. 2018. Tetanic index was calculated as the ratio between the maximal tetanic specific force divided by the maximal twitch specific force. […]

Where a name gives a salt, the structure may show the parent alone.

As to `Cc1nc(NC(=O)N2CCC[C@H]2C(N)=O)sc1-c1ccnc(C(C)(C)C(F)(F)F)c1` [Alpelisib], in assay [1], the fold induction at 0.1 µM amounted to 1.08 ± 0.09, the fold induction at 1 µM amounted to 1.45 ± 0.11 and the fold induction at 10 µM was determined as 1.4 ± 0.13.
As to `C=CCSCC1Nc2cc(Cl)c(S(N)(=O)=O)cc2S(=O)(=O)N1` (stereo not drawn) [Altizide], in assay [1], the fold induction at 0.1 µM worked out at 1.09 ± 0.07, the fold induction at 1 µM came to 1.33 ± 0.09 and the fold induction at 10 µM was 1.33 ± 0.09.
In the case of `Oc1ccc(Nc2ccnc3cc(Cl)ccc23)cc1CN1CCCC1` [Amopyroquine], in assay [1], the fold induction at 0.1 µM worked out at 1.23 ± 0.11, the fold induction at 1 µM stood at 1.1 ± 0.14 and the fold induction at 10 µM was determined as 1.23 ± 0.37.
For `CC(=O)Nc1ccc(OC(=O)c2ccccc2OC(C)=O)cc1` [Benorilate], in assay [1], the fold induction at 0.1 µM came to 1.16 ± 0.12, the fold induction at 1 µM is 1.04 ± 0.16 and the fold induction at 10 µM is 1.58 ± 0.29.
In the same order, the values of `CCOC(=O)COc1ccc2c(C)c(CCN(CC)CC)c(=O)oc2c1Cl` [Cloricromen hydrochloride, Cloricromen] are 1.06 ± 0.19, 1.07 ± 0.22 and 1.34 ± 0.13.
On to `O=C(Cc1ccc(-c2ccccc2)cc1)Nc1ccccn1` [Difenpiramide], for which, in assay [2], the “tetanic index (maximal tetanic specific force / maximal twitch specific force)” value is “significant increase”, the “maximal twitch contractile force in response to electrical stimulation” value is “increase” and the “tetanic contractile force in response to electrical stimulation” value was “increase”. Further, in assay [1], the fold induction at 0.1 µM came out at 1.24 ± 0.13, the fold induction at 1 µM amounted to 1.1 ± 0.21 and the fold induction at 10 µM was 1.23 ± 0.21.
For `CCOc1ccc2[nH]c(SCCN3CCOCC3)nc2c1` [Fabomotizole hydrochloride, Fabomotizole], in assay [1], the fold induction at 0.1 µM came out at 1.34 ± 0.07, the fold induction at 1 µM was 1.04 ± 0.1 and the fold induction at 10 µM was determined as 1.34 ± 0.19.
For `O=C(CC1NCCCC1O)Cn1cnc2cc(Br)c(Cl)cc2c1=O` (stereo not drawn) [Halofuginone], in that order: 1.44 ± 0.37, 1.24 ± 0.1 and 1.3 ± 0.04.
Regarding `O=C(O)[C@@H](c1ccc(OCc2ccc3ccccc3n2)cc1)C1CCCC1` [Veliflapon], in assay [2], the “tetanic index (maximal tetanic specific force / maximal twitch specific force)” value is given as “significant increase”, the “maximal twitch contractile force in response to electrical stimulation” value is listed as “increase” and the “tetanic contractile force in response to electrical stimulation” value is given as “increase”. Besides, in assay [1], the fold induction at 0.1 µM was 1.43 ± 0.24, the fold induction at 1 µM stood at 1.35 ± 0.02 and the fold induction at 10 µM stood at 1.05 ± 0.15.
Take `Cc1cccc(C)c1NC(=O)c1cc(S(N)(=O)=O)c(Cl)cc1O` [Xipamide]: in assay [1], the fold induction at 0.1 µM was found to be 1.25 ± 0.18, the fold induction at 1 µM turned out to be 1.05 ± 0.17 and the fold induction at 10 µM was determined as 1.18 ± 0.1.

The values above are taken from US20250152567A1, “COMPOUNDS FOR USE IN THE TREATMENT OF DYSTROPHINOPATHIES” (SOM INNOVATION BIOTECH, S.A., priority 2022, published 2025).
